In US4643734A, “Lactide/caprolactone polymer, method of making the same, composites thereof, and prostheses produced therefrom” (Hexcel Corporation, priority 1983, dated 1987):

Tests used:
Type in all cases: cell-based
[1] = test system: Salmonella typhimurium TA 1535; test: Ames plate incorporation assay, TA1535
Experimental: (§1) A Salmonella/mammalian mutagenicity test was performed to determine if a saline extract of the polymer would cause mutagenic changes in histidine dependent mutant strains of Salmonella typhimurium. The method of Ames et al as reported in Methods for Detecting Carcinogens and Mutagens with the Salmonella/Mammalian Mutagenicity Test (1975) was employed.
(§2) Test sample--a polymer, saline (0.85%) extract was prepared by adding 4 grams of sample to 20 ml of saline and autoclaving at 121° C. for one hour.
(§3) Bacterial test strains--four strains of specially constructed histidine mutants of Salmonella typhimurium, TA 98, TA 100, TA 1535 and TA 1537, developed by Dr. B. Ames, University of California, Berkeley were employed.
(§4) Activation system--S-9 Activation Mix is composed mainly of the microsomal fraction from a rat liver homogenate. The S-9 mix was used for the detection of mutagenic properties that require metabolic biotransformation to their active mutagenic form. […]
(§5) Ames plate incorporation assay--the principle technique of the Ames test consists of a plate incorporation assay from which direct revertant colony counts are obtained from the test plates. […] Following a 48 hour incubation period at 30° C., the number of colonies in each test plate are recorded as revertant colonies for comparison with spontaneous revertant rates for each strain.

[2] = test system: Salmonella typhimurium TA 100; test: Ames plate incorporation assay, TA100
Experimental: as §1, §2, §3
Activation system--S-9 Activation Mix is composed mainly of the microsomal fraction from a rat liver homogenate. The S-9 mix was used for the detection of mutagenic properties that require metabolic biotransformation to their active mutagenic form. S-9 mix employed was Aroclor 1254--induced(Litton Bionetics, Inc., Kensington, Md., Lot #REL 091).
Negative controls--the solvent elution vehicle was test with each bacterial strain to determine the number of spontaneous revertant colonies for each test population.
MDA requires metabolic activation to induce mutagenic results; therefore, it was tested (on strain TA 100 only) with and without S-9 mix to verify the bioactivation properties of the S-9 rat liver preparation.
Ames plate incorporation assay--the principle technique of the Ames test consists of a plate incorporation assay from which direct revertant colony counts are obtained from the test plates. Minimal nutrient agar plates are seeded with both a tester strain population and the test solution suspended together in a semi-solid overlay. Test plates are prepared providing for either the presence or absence of S-9 activation mix supplemented in the overlay. Following a 48 hour incubation period at 30° C., the number of colonies in each test plate are recorded as revertant colonies for comparison with spontaneous revertant rates for each strain.

[3] = test system: Salmonella typhimurium TA 98; test: Ames plate incorporation assay, TA98
Experimental: as §1, §2, §3, §4, §5

[4] = test system: Salmonella typhimurium TA 1537; test: Ames plate incorporation assay, TA1537
Experimental: as §1, §2, §3, §4, §5

With `CN(C)c1ccc(N=NS(=O)(=O)[O-])cc1.[Na+]` [Dexon] as the molecule, how does the “Number of Revertant Colonies (Average of Duplicate Plates)” value (“Number of Revertant Colonies” below) ([1]; TA1535, w/S-9) read?
The value was 26.5.

What about the “Number of Revertant Colonies” value ([1]; TA1535, without S-9) of the same molecule?
The value was 28.0.

What about the “Number of Revertant Colonies” value ([2]; TA100, w/S-9) of the same molecule?
Its value is 388.5.

And the “Number of Revertant Colonies” value ([2]; TA100, without S-9)?
The value was 377.0.

And the “Number of Revertant Colonies” value ([3]; TA98, w/S-9)?
Its value is 430.0.

What about the “Number of Revertant Colonies” value ([3]; TA98, without S-9) of the same molecule?
The value was 422.0.

What about the “Number of Revertant Colonies” value ([4]; TA1537, w/S-9) of the same molecule?
Its value is 230.0.

And the “Number of Revertant Colonies” value ([4]; TA1537, without S-9)?
The value was 216.0.

`Nc1ccc(Cc2ccc(N)cc2)cc1` [MDA, methylene dianiline] was tested. Which “Number of Revertant Colonies” value ([2]; TA100, w/S-9) did it give?
The value was 223.0.

And the “Number of Revertant Colonies” value ([2]; TA100, without S-9)?
Its value is 73.0.
